# Results as given in US9345678B2, “Prostanoid receptor agonist compounds and methods of use for same” (ALLERGAN, INC., priority 2013, dated 2016).
# Like-named read-outs stand apart in the source and are kept apart here.
# How the values were obtained:
# [1] = tested on: rat endotoxin-induced uveitis (EIU) model; assay: Rat endotoxin-induced uveitis (EIU) model: cell infiltrate and protein leakage in the aqueous humor; assay type: in vivo; conditions: for Protein concentration in the aqueous humor: FIG. 11B; for Cell infiltrate in the aqueous humor: FIG. 9C
# Text: FIGS. 9A-D show the results of experiments where cicaprost was applied topically to inhibit inflammation in a rat endotoxin-induced uveitis (EIU) model. Here, the rats were challenged with LPS, and the resulting inflammatory reaction was quantified by measuring leukocyte cell infiltration in the aqueous humor and by measuring the amount of protein leakage into the aqueous humor. In the Figures, “LPS” corresponds to the control where no other topical treatment was applied. “Vehicle” corresponds to an eye drop ophthalmic vehicle solution containing no drug, and which otherwise comprises 0.1% polysorbate 80 in an aqueous medium. “Pred-Forte” corresponds to an ophthalmic solution of 1% prednisolone acetate. “Acular” corresponds to an ophthalmic solution of 0.4% ketorolac. The concentrations of cicaprost used in the ophthalmic vehicle solution were 0.001%, 0.01%, and 0.1%.
# FIGS. 11A-B show the results of experiments measuring cell infiltrate and protein in the aqueous humor in a rat EIU model challenged with LPS, where the rats were challenged in a similar manner as described previously. Cicaprost, as well as the cicaprost prodrugs described above in Formulas II-V, were separately topically dosed as a 0.1% ophthalmic solution.
# [2] = tested on: cytokine secretion in human monocyte derived dendritic cells; assay: Cytokine secretion in LPS-stimulated human monocyte derived dendritic cells; assay type: cell-based
# Method: FIGS. 8A-F illustrate the effect of different IP receptor agonists and antagonists on cytokine secretion in human monocyte derived dendritic cells stimulated with LPS. In these experiments, the cells were exposed to cicaprost, cicaprost in conjunction with DMSO, and cicaprost with an IP receptor antagonist (Formula VI). Cytokines measured for were TNF-α, IL-6, MCP-1, MIP-1β, IL-8, and IL-12p70, corresponding to FIGS. 8A through 8F, respectively. The concentration ranges of cicaprost were 0 nM, 0.1 nM, 1 nM, 10 nM, 100 nM, and 1000 nM. The concentration of Formula VI IP receptor antagonist used was 10 uM throughout. The concentration of the various cytokines tested for were measured in ng/ml. The concentration of the DMSO used in conjunction with cicaprost was at 0.1%.
# [3] = tested on: IL-8 secretion in human macrophages; assay: Effect on IL-8 secretion in stimulated human macrophages in vitro; assay type: cell-based; conditions: Macrophage, LPS stimulation, FIG. 1A
# Method: (§1) The human macrophages were simulated either with lipopolysaccharide (LPS), illustrated in FIG. 1A, or with TNF-α, illustrated in FIG. 1B. The labels on the x-axis correspond respectively to tests measuring IL-8 concentration with no stimulus, a control of only stimulant vehicle (i.e., LPS or TNF-α), and stimulant vehicle in conjunction with cicaprost concentrations of 0.1 nM, 1 nM, 10 nM, 100 nM, and 1000 nM. The y-axis tracks the percentage change of concentration of IL-8 versus the control stimulant vehicle, which is set at 100%.
# [4] = tested on: MCP-1 secretion in human macrophages; assay: Effect on MCP-1 secretion in stimulated human macrophages in vitro; assay type: cell-based; conditions: Macrophage
# Method: as §1, with “FIGS. 1A-B illustrate the effect of cicaprost on IL-8 secretion on in vitro human macrophages. The human” for “The human”
# FIGS. 2A-B illustrate the effect of cicaprost on MCP-1 secretion on in vitro human macrophages. The human macrophages were simulated either with LPS, illustrated in FIG. 2A, or with TNF-α, illustrated in FIG. 2B. The labeling of the graphs is otherwise the same as described above.
# [5] = tested on: MIP-1α secretion in human macrophages; assay: Effect on MIP-1α secretion in stimulated human macrophages in vitro; assay type: cell-based; conditions: Macrophage
# Method: as §1, with “FIGS. 1A-B illustrate the effect of cicaprost on IL-8 secretion on in vitro human macrophages. The human” for “The human”
# FIGS. 3A-B illustrate the effect of cicaprost on MIP-1α secretion on in vitro human macrophages. The human macrophages were simulated either with LPS, illustrated in FIG. 3A, or with TNF-α, illustrated in FIG. 3B. The labeling of the graphs is otherwise the same as described above.
# [6] = tested on: MIP-1β secretion in human macrophages; assay: Effect on MIP-1β secretion in stimulated human macrophages in vitro; assay type: cell-based; conditions: Macrophage
# Method: as §1, with “FIGS. 1A-B illustrate the effect of cicaprost on IL-8 secretion on in vitro human macrophages. The human” for “The human”
# FIGS. 4A-B illustrate the effect of cicaprost on MIP-1β secretion on in vitro human macrophages. The human macrophages were simulated either with LPS, illustrated in FIG. 4A, or with TNF-α, illustrated in FIG. 4B. The labeling of the graphs is otherwise the same as described above.
# [7] = tested on: RANTES secretion in human macrophages; assay: Effect on RANTES secretion in stimulated human macrophages in vitro; assay type: cell-based; conditions: Macrophage
# Method: as §1, with “FIGS. 1A-B illustrate the effect of cicaprost on IL-8 secretion on in vitro human macrophages. The human” for “The human”
# FIGS. 5A-B illustrate the effect of cicaprost on RANTES secretion on in vitro human macrophages. The human macrophages were simulated either with LPS, illustrated in FIG. 5A, or with TNF-α, illustrated in FIG. 5B. The labeling of the graphs is otherwise the same as described above.
# [8] = tested on: TNF-α secretion in human macrophages; assay: Effect on TNF-α secretion in LPS-stimulated human macrophages in vitro; assay type: cell-based; conditions: Macrophage, LPS stimulation, FIG. 6
# Method: as §1, with “FIGS. 1A-B illustrate the effect of cicaprost on IL-8 secretion on in vitro human macrophages. The human” for “The human”
# FIG. 6 illustrates the effect of cicaprost on TNF-α secretion on in vitro human macrophages. The human macrophages were simulated with LPS. The labeling of the graphs is otherwise the same as described above.
# [9] = tested on: VEGF secretion in human macrophages; assay: Effect on VEGF secretion in TNF-α-stimulated human macrophages in vitro; assay type: cell-based; conditions: Macrophage, TNF-α stimulation, FIG. 7
# Method: as §1, with “FIGS. 1A-B illustrate the effect of cicaprost on IL-8 secretion on in vitro human macrophages. The human” for “The human”
# FIG. 7 illustrates the effect of cicaprost on VEGF secretion on in vitro human macrophages. The human macrophages were simulated with TNF-α. The labeling of the graphs is otherwise the same as described above.
# [10] = tested on: rat endotoxin-induced uveitis (EIU) model; assay: Rat EIU model: cytokine concentration in the aqueous humor; assay type: in vivo; conditions: LPS challenge, topical cicaprost 0.001%, 0.01%, 0.1%, vs vehicle
# Method: FIGS. 10A-C depict the results of experiments measuring cytokine expression in a rat EIU model, where the rats were challenged with LPS. Cytokine concentration (here, MCP-1, RANTES, and IL-6) was measured subsequent to the LPS challenge, after topical application of cicaprost at concentrations from 0.001%, 0.01%, and 0.1%, together with a control eye drop vehicle (abbreviated “Vehicle” in the figures) where no cicaprost was present.
# [11] = tested on: corneal wound (anterior keratectomy), donated human eyes; assay: Corneal wound closure in an anterior segment model of donated human eyes; conditions: 0.1% cicaprost, two drops at 0 and 9 hours, wound area at 18 hours, vs vehicle-dosed eye, 3 pairs of donor eyes
# Method: The effect of cicaprost on corneal wound healing was evaluated in an anterior segment model using 3 pairs of donated human eyes. Wounding (anterior keratectomy, AK) was induced by scoring the cornea in 8 mm diameter, and the epithelium was removed using a gill knife. The anterior segment of the eye was dissected and cultured in complete medium on a rotating platform for several days to maintain tissue differentiation. Two drops (approximately 50 μl per drop) of 0.1% cicaprost were dosed at 0 and 9 hours on one eye (“Cp”), while the other eye (“CN”) was treated with vehicle (0.1% polysorbate 80 in saline). The initial wound and the progression of wound closure was visualized with 0.015% fluorescein, and the wound area recorded at 0 and 18 hours, as shown in FIG. 12.
# [12] = LPS challenge, topical 0.1% ophthalmic solution, vs control vehicle
structure (smiles),measurement,setting,value
CCC#CC[C@H](C)[C@H](O)C#C[C@@H]1[C@H]2C/C(=C/COCC(=O)O)C[C@H]2C[C@H]1OC(=O)CC [Formula III],Protein concentration in the aqueous humor,[1]; [12],approximately comparable to cicaprost in effect
CCC#CC[C@H](C)[C@H](O)C#C[C@@H]1[C@H]2C/C(=C/COCC(=O)O)C[C@H]2C[C@H]1OC(C)=O [Formula II],Protein concentration in the aqueous humor,[1]; [12],some reduction in protein concentration
CCC#CC[C@H](C)[C@@H](C#C[C@@H]1[C@H]2C/C(=C/COCC(=O)O)C[C@H]2C[C@H]1O)OC(C)=O [Formula IV],Protein concentration in the aqueous humor,[1]; [12],some reduction in protein concentration
"C=C/C(=C\C=C\Cc1ccc(NC2=NCCN2)cc1)OCC [Formula VI, reference compound]",Cytokine expression on addition of the IP receptor antagonist to cicaprost,[2]; Formula VI 10 uM with cicaprost 0-1000 nM,caused cytokine expression to remain elevated in comparison
CCC#CC[C@H](C)[C@@H](C#C[C@@H]1[C@H]2C/C(=C/COCC(=O)O)C[C@H]2C[C@H]1O)OC(=O)CC [Formula V],Protein concentration in the aqueous humor,[1]; [12],some reduction in protein concentration
CCC#CC[C@H](C)[C@H](O)C#C[C@@H]1[C@H]2C/C(=C/COCC(=O)O)C[C@H]2C[C@H]1O [cicaprost],IC50,[3],0.8 nM
same,IC50,"[4]; LPS stimulation, FIG. 2A, read-out: IC50 on MCP-1 secretion stimulated by LPS",0.7 nM
same,IC50,"[4]; TNF-α stimulation, FIG. 2B, read-out: IC50 on MCP-1 secretion",0.5 nM
same,IC50,"[5]; LPS stimulation, FIG. 3A, read-out: IC50 on MIP-1α secretion stimulated by LPS",0.3 nM
same,IC50,"[5]; TNF-α stimulation, FIG. 3B, read-out: IC50 on MIP-1α secretion",0.6 nM
same,IC50,"[6]; LPS stimulation, FIG. 4A, read-out: IC50 on MIP-1β secretion stimulated by LPS",0.5 nM
same,IC50,"[6]; TNF-α stimulation, FIG. 4B, read-out: IC50 on MIP-1β secretion",0.7 nM
same,IC50,"[7]; LPS stimulation, FIG. 5A, read-out: IC50 on RANTES secretion stimulated by LPS",0.8 nM
same,IC50,"[7]; TNF-α stimulation, FIG. 5B, read-out: IC50 on RANTES secretion",1.6 nM
same,IC50,[8],0.14 nM
same,EC50,[9],2.3 nM
same,"Cytokine expression (TNF-α, IL-6, MCP-1, MIP-1β, IL-8, IL-12p70)",[2]; cicaprost 0.1-1000 nM with 0.1% DMSO,increasing inhibition of cytokine expression
same,"Cytokine expression (TNF-α, IL-6, MCP-1, MIP-1β, IL-8, IL-12p70)","[2]; cicaprost 0.1-1000 nM, vs 0 nM control",increasing inhibition of cytokine expression
same,Cell infiltration in the aqueous humor,"[1]; LPS challenge, topical 0.1% ophthalmic solution, vs control vehicle, FIG. 11A",caused a reduction in cell infiltration
same,Protein concentration in the aqueous humor,[1]; [12],reduced protein concentration in the aqueous humor
same,Cell infiltrate in the aqueous humor,[1]; topical 0.1% cicaprost solution,reduced cell infiltrate to near-zero levels
same,Cell infiltrate in the aqueous humor,"[1]; topical cicaprost 0.001%, 0.01%, 0.1%",increasing effect on lowering cell infiltrate
same,Protein in the aqueous humor,"[1]; topical cicaprost 0.001-0.1%, especially 0.1%, FIG. 9D",also reduced
same,IL-6 concentration,[10],reduced the concentration of the monitored cytokines
same,MCP-1 concentration,[10],reduced the concentration of the monitored cytokines
same,RANTES concentration,[10],reduced the concentration of the monitored cytokines
same,Percentage of wound closure,[11],showed an improvement in the percentage of wound closure
